Measurements reported in patent US4837305A, “Derivatives of β-adrenergic antagonists” (The Regents of the University of California, priority 1987, dated 1989).

Tested on: S-49 mouse lymphoma cells
Experiment: Blocking of isoproterenol-promoted cyclic AMP accumulation in S-49 mouse lymphoma cells
Assay type: cell-based
Details: blocking isoproterenol-promoted cyclic AMP release in S49 cells
Description: The β-adrenergic antagonist derivatives can be tested for biological and pharmacological activity by an in vitro technique. In this test a measurement is taken of the concentration of the derivative required to block a specified dose of isoproterenol (β-adrenergic agonist) in S-49 mouse lymphoma cells as measured by cyclic AMP accumulation therein. Details of the test utilizing S-49 mouse lymphoma cells is set forth in Coffino et al, In Vitro, 14, #1, 140 (1978). The activities of the β-adrenergic derivatives are expressed as the relative potencies of the unmodified drug, i.e., the β-adrenergic antagonist to that of the derivative drug.

Row | Compound | Rel. Potency (potency relative to the parent compound) (relative to propranolol) | Rel. Potency (potency relative to the parent compound) (relative to practolol)
1 | Cc1ccc(NC(=O)CCC(C)NCC(O)COc2cccc3ccccc23)cc1 (stereo not shown) [Compound 7, 4-[3-(1-Naphthyloxy)-2-Hydroxypropylamino]-Pentanoic Acid p-Toluide] | 6.8 × 10^-5 | 
2 | Cc1ccc(NC(=O)CCCC(C)NCC(O)COc2cccc3ccccc23)cc1 (stereo not shown) [Compound 8, 5-[3-(1-Naphthyloxy)-2-Hydroxypropylamino]-Hexanoic Acid p-Toluide] | 6.8 × 10^-5 | 
3 | Cc1ccc(NC(=O)CCCCC(C)NCC(O)COc2cccc3ccccc23)cc1 (stereo not shown) [Compound 9, 6-[3-(1-Naphthyloxy)-2-Hydroxypropylamino]-Heptanoic Acid p-Toluide] | 4.5 × 10^2 | 
4 | Cc1ccc(NC(=O)CCCCCC(C)NCC(O)COc2cccc3ccccc23)cc1 (stereo not shown) [Compound 10, 7-[3-(1-Naphthyloxy)-2-Hydroxypropylamino]-Octanoic Acid-p-Toluide] | 3.7 × 10^-2 | 
5 | CC(CCCCC(=O)Nc1ccc(C(F)(F)F)cc1)NCC(O)COc1cccc2ccccc12 (stereo not shown) [Compound 11, 6-[3-(1-Naphthyloxy)-2-Hydroxypropylamino]-Heptanoic Acid p-Trifluoromethylanilide] | 8.75 | 
6 | CC(CCCCC(=O)Nc1ccc(CCC(=O)O)cc1)NCC(O)COc1cccc2ccccc12 (stereo not shown) [Compound 12, 3-{p-(6-[3-(1-Naphthyloxy)-2-Hydroxypropylamino]Heptanoylamino)-Phenyl}-Propionic Acid] | 8.8 × 10^-1 | 
7 | CCCCNC(=O)CCc1ccc(NC(=O)CCCCC(C)NCC(O)COc2cccc3ccccc23)cc1 (stereo not shown) [Compound 13, 3-{p-(6-[3-(1-Naphthyloxy)-2-Hydroxypropylamino]Heptanoylamino)-Phenyl}-Propionic Acid n-Butylamide] | 4.5 × 10^-2 | 
8 | CCCCNC(=O)CCCCC(C)NCC(O)COc1cccc2ccccc12 (stereo not shown) [Compound 14, 6-[3-(1-Naphthyloxy)-2-Hydroxypropylamino]-Heptanoic Acid n-Butylamide] | 9.1 × 10^-1 | 
9 | CC(=O)N[C@@H](Cc1ccc(NC(=O)CCCCC(C)NCC(O)COc2cccc3ccccc23)cc1)C(=O)NCCCO (stereo partly drawn) [Compound 15, N^α -Acetyl-p-{6-(3-[1-Naphthyloxy]-2-Hydroxypropylamino)-Heptanoylamino}-L-Phenylalanyl-3-Hydroxypropylamide] | 1.75 × 10^-1 | 
10 | CNC(=O)CNC(=O)[C@H](Cc1ccc(NC(=O)CCCCC(C)NCC(O)COc2cccc3ccccc23)cc1)NC(=O)OC(C)(C)C (stereo partly drawn) [Compound 16, N^α -t-Butyloxycarbonyl-p-{6-(3-[1-Naphthyloxy]-2-Hydroxypropylamino)-Heptanoylamino}-L-Phenylalanyl-Glycyl-Methylamide] | 7.8 × 10^-4 | 
11 | CC(=O)Nc1ccc(OCC(O)CNC(C)CCCCC(=O)Nc2ccc(C)cc2)cc1 (stereo not shown) [Compound 17, 6-[3-(4-Acetamidophenoxy)-2-Hydroxypropylamino]-Heptanoic Acid p-Toluide] |  | 2.1 × 10^1
12 | CC(=O)Nc1ccc(OCC(O)CNC(C)CCCCC(=O)Nc2ccc(C(F)(F)F)cc2)cc1 (stereo not shown) [Compound 18, 6-[3-(4-Acetamidophenoxy)-2-Hydroxypropylamino]-Heptanoic Acid p-Trifluoromethylanilide] |  | 6.0
13 | CC(=O)Nc1ccc(OCC(O)CNC(C)CCCCC(=O)Nc2ccc(C[C@H](NC(C)=O)C(=O)NCCCO)cc2)cc1 (stereo partly drawn) [Compound 19, N^α -Acetyl-p-{6-(3-[4-Acetamidophenoxy]-2-Hydroxypropylamino)-Heptanoylamino}-L-Phenylalanyl-3-Hydroxypropylamide] |  | 1.5
